Measurements: ChEMBL document CHEMBL5303573, “Mapping human microbiome drug metabolism by gut bacteria and their genes” (Nature, 2019)

Legend:
[1] = The drug is tested on Bacteroides cellulosilyticus strain: DSM14838 for biotransformation. The drug concentrations were measured before and after a 12-h incubation by liquid-chromatography-coupled mass spectrometry (LC–MS); conditions: 2 µM
[2] = The drug is tested on Anaerococcus hydrogenalis strain: DSM7454 for biotransformation. The drug concentrations were measured before and after a 12-h incubation by liquid-chromatography-coupled mass spectrometry (LC–MS); conditions: 2 µM
[3] = The drug is tested on Ruminococcus gnavus strain: ATCC29149 for biotransformation. The drug concentrations were measured before and after a 12-h incubation by liquid-chromatography-coupled mass spectrometry (LC–MS); conditions: mediterraneibacter gnavus, 2 µM
[4] = bacteroides fragilis, 12 h, 2 µM
Description: The drug is tested on Bacteroides fragilis strain: 3397 (T10) for biotransformation. The drug concentrations were measured before and after a 12-h incubation by liquid-chromatography-coupled mass spectrometry (LC–MS)

[5] = The drug is tested on Ruminococcus lactaris strain: ATCC29176 for biotransformation. The drug concentrations were measured before and after a 12-h incubation by liquid-chromatography-coupled mass spectrometry (LC–MS); conditions: 2 µM
[6] = bacteroides fragilis, 12 h, 2 µM; remark: listed apart in the source
Description: The drug is tested on Bacteroides fragilis strain: DS-208 for biotransformation. The drug concentrations were measured before and after a 12-h incubation by liquid-chromatography-coupled mass spectrometry (LC–MS)

[7] = The drug is tested on Alistipes indistinctus strain: DSM22520 for biotransformation. The drug concentrations were measured before and after a 12-h incubation by liquid-chromatography-coupled mass spectrometry (LC–MS); conditions: 2 µM
[8] = The drug is tested on Bifidobacterium breve strain: DSM20213 for biotransformation. The drug concentrations were measured before and after a 12-h incubation by liquid-chromatography-coupled mass spectrometry (LC–MS); conditions: 2 µM
[9] = The drug is tested on Bacteroides coprophilus strain: DSM18228 for biotransformation. The drug concentrations were measured before and after a 12-h incubation by liquid-chromatography-coupled mass spectrometry (LC–MS); conditions: 2 µM
[10] = The drug is tested on Clostridium scindens strain: ATCC35704 for biotransformation. The drug concentrations were measured before and after a 12-h incubation by liquid-chromatography-coupled mass spectrometry (LC–MS); conditions: 2 µM
[11] = parabacteroides distasonis, 12 h, 2 µM
Description: The drug is tested on Parabacteroides distasonis strain: ATCC8503 for biotransformation. The drug concentrations were measured before and after a 12-h incubation by liquid-chromatography-coupled mass spectrometry (LC–MS)

[12] = bacteroides thetaiotaomicron, 12 h, 2 µM
Description: The drug is tested on Bacteroides thetaiotaomicron strain: 3731 for biotransformation. The drug concentrations were measured before and after a 12-h incubation by liquid-chromatography-coupled mass spectrometry (LC–MS)

[13] = The drug is tested on Anaerotruncus colihominis strain: DSM17241 for biotransformation. The drug concentrations were measured before and after a 12-h incubation by liquid-chromatography-coupled mass spectrometry (LC–MS); conditions: 2 µM
[14] = The drug is tested on Bacteroides finegoldii strain: DSM17565 for biotransformation. The drug concentrations were measured before and after a 12-h incubation by liquid-chromatography-coupled mass spectrometry (LC–MS); conditions: 2 µM
[15] = bacteroides stercoris, 12 h, 2 µM
Description: The drug is tested on Bacteroides stercoris strain: ATCC43183 for biotransformation. The drug concentrations were measured before and after a 12-h incubation by liquid-chromatography-coupled mass spectrometry (LC–MS)

[16] = The drug is tested on Eubacterium hallii strain: DSM3353 for biotransformation. The drug concentrations were measured before and after a 12-h incubation by liquid-chromatography-coupled mass spectrometry (LC–MS); conditions: anaerobutyricum hallii, 2 µM
[17] = The drug is tested on Bacteroides vulgatus strain: ATCC8482 for biotransformation. The drug concentrations were measured before and after a 12-h incubation by liquid-chromatography-coupled mass spectrometry (LC–MS); conditions: phocaeicola vulgatus, 2 µM
[18] = parabacteroides johnsonii, 12 h, 2 µM
Description: The drug is tested on Parabacteroides johnsonii strain: DSM18315 for biotransformation. The drug concentrations were measured before and after a 12-h incubation by liquid-chromatography-coupled mass spectrometry (LC–MS)

[19] = The drug is tested on Eubacterium ventriosum strain: ATCC27560 for biotransformation. The drug concentrations were measured before and after a 12-h incubation by liquid-chromatography-coupled mass spectrometry (LC–MS); format: ADME; parameters: dose 2 uM, timepoint 0 vs 12 hours; conditions: 2 µM
[20] = The drug is tested on Enterobacter cancerogenus strain: ATCC35316 for biotransformation. The drug concentrations were measured before and after a 12-h incubation by liquid-chromatography-coupled mass spectrometry (LC–MS); conditions: 2 µM

SMILES | Bacterial Biotransformation [1] | Bacterial Biotransformation [2] | Bacterial Biotransformation [3] | Bacterial Biotransformation [4] | Bacterial Biotransformation [5] | Bacterial Biotransformation [6] | Bacterial Biotransformation [7] | Bacterial Biotransformation [8] | Bacterial Biotransformation [9] | Bacterial Biotransformation [10] | Bacterial Biotransformation [11] | Bacterial Biotransformation [12] | Bacterial Biotransformation [13] | Bacterial Biotransformation [14] | Bacterial Biotransformation [15] | Bacterial Biotransformation [16] | Bacterial Biotransformation [17] | Bacterial Biotransformation [18] | Bacterial Biotransformation [19] | Bacterial Biotransformation [20]
CCN(CC)C(C)CN1c2ccccc2Sc2ccccc21 (stereo not drawn) [ETHOPROPAZINE] | Compound NOT metabolized | Compound NOT metabolized | Compound NOT metabolized | Compound NOT metabolized | Compound NOT metabolized | Compound NOT metabolized | Compound NOT metabolized | Compound NOT metabolized | Compound NOT metabolized | Compound NOT metabolized | Compound metabolized | Compound NOT metabolized | Compound NOT metabolized | Compound NOT metabolized | Compound NOT metabolized | Compound NOT metabolized | Compound metabolized | Compound metabolized | Compound NOT metabolized | 
CC(CCc1ccccc1)NCC(O)c1ccc(O)c(C(N)=O)c1 (stereo not drawn) [LABETALOL] | Compound NOT metabolized | Compound NOT metabolized | Compound NOT metabolized | Compound NOT metabolized | Compound NOT metabolized | Compound NOT metabolized |  | Compound NOT metabolized | Compound NOT metabolized |  | Compound NOT metabolized | Compound NOT metabolized |  | Compound NOT metabolized | Compound NOT metabolized | Compound NOT metabolized | Compound NOT metabolized | Compound NOT metabolized | Compound NOT metabolized | Compound NOT metabolized
C=CCN1CC[C@]23c4c5ccc(O)c4O[C@H]2C(=O)CC[C@@]3(O)[C@H]1C5 [NALOXONE] | Compound NOT metabolized | Compound NOT metabolized | Compound NOT metabolized | Compound metabolized | Compound NOT metabolized | Compound metabolized |  | Compound NOT metabolized | Compound metabolized |  | Compound NOT metabolized | Compound metabolized | Compound NOT metabolized | Compound NOT metabolized |  | Compound NOT metabolized | Compound metabolized | Compound metabolized | Compound NOT metabolized | Compound NOT metabolized
CCN(CC)CCNC(=O)c1cc(Cl)c(N)cc1OC [METOCLOPRAMIDE] | Compound NOT metabolized | Compound NOT metabolized | Compound NOT metabolized | Compound NOT metabolized | Compound NOT metabolized | Compound NOT metabolized |  | Compound NOT metabolized | Compound NOT metabolized | Compound NOT metabolized | Compound NOT metabolized | Compound NOT metabolized | Compound NOT metabolized | Compound NOT metabolized | Compound NOT metabolized | Compound NOT metabolized | Compound NOT metabolized | Compound NOT metabolized | Compound NOT metabolized | Compound NOT metabolized
CC(=O)OCC(=O)[C@@]1(OC(C)=O)[C@@H](C)C[C@H]2[C@@H]3C[C@H](F)C4=CC(=O)C=C[C@]4(C)[C@@]3(F)[C@@H](O)C[C@@]21C [DIFLORASONE DIACETATE] | Compound metabolized | Compound NOT metabolized | Compound NOT metabolized | Compound metabolized | Compound NOT metabolized | Compound metabolized | Compound metabolized | Compound NOT metabolized | Compound NOT metabolized | Compound NOT metabolized | Compound metabolized | Compound metabolized | Compound metabolized | Compound metabolized | Compound metabolized | Compound NOT metabolized | Compound metabolized | Compound metabolized | Compound NOT metabolized | 
CC(C)N(CCC(C(N)=O)(c1ccccc1)c1ccccn1)C(C)C.O=P(O)(O)O (stereo not drawn) [DISOPYRAMIDE PHOSPHATE] | Compound NOT metabolized | Compound NOT metabolized | Compound NOT metabolized | Compound NOT metabolized | Compound NOT metabolized | Compound NOT metabolized |  | Compound NOT metabolized | Compound NOT metabolized | Compound NOT metabolized | Compound NOT metabolized |  | Compound NOT metabolized | Compound NOT metabolized | Compound NOT metabolized | Compound NOT metabolized |  | Compound NOT metabolized | Compound NOT metabolized | Compound NOT metabolized
CC(C)c1c(CN(C)C(C)Cc2ccccc2)n(C)n(-c2ccccc2)c1=O (stereo not drawn) [FAMPROFAZONE] | Compound metabolized | Compound metabolized | Compound NOT metabolized | Compound metabolized | Compound NOT metabolized | Compound metabolized | Compound NOT metabolized | Compound NOT metabolized | Compound metabolized | Compound NOT metabolized | Compound metabolized | Compound metabolized |  | Compound metabolized | Compound metabolized | Compound NOT metabolized | Compound metabolized | Compound metabolized | Compound NOT metabolized | 
Cc1ccccc1N1C(=O)c2cc(S(N)(=O)=O)c(Cl)cc2NC1C (stereo not drawn) [METOLAZONE] | Compound NOT metabolized |  | Compound NOT metabolized |  |  | Compound NOT metabolized |  | Compound NOT metabolized | Compound NOT metabolized |  | Compound NOT metabolized | Compound NOT metabolized |  |  | Compound NOT metabolized | Compound NOT metabolized | Compound NOT metabolized | Compound NOT metabolized |  | Compound NOT metabolized
